From ChEMBL document CHEMBL1128932, “Liposome-like fucopeptides as sialyl lewis X mimetics” (Bioorg Med Chem Lett, 1996)

target: T1, E-selectin (Homo sapiens, UniProt P16581); assay: Ability to inhibit sialyl Lewis X binding to Selectin E was determined
T1 sequence (P16581 whole entry): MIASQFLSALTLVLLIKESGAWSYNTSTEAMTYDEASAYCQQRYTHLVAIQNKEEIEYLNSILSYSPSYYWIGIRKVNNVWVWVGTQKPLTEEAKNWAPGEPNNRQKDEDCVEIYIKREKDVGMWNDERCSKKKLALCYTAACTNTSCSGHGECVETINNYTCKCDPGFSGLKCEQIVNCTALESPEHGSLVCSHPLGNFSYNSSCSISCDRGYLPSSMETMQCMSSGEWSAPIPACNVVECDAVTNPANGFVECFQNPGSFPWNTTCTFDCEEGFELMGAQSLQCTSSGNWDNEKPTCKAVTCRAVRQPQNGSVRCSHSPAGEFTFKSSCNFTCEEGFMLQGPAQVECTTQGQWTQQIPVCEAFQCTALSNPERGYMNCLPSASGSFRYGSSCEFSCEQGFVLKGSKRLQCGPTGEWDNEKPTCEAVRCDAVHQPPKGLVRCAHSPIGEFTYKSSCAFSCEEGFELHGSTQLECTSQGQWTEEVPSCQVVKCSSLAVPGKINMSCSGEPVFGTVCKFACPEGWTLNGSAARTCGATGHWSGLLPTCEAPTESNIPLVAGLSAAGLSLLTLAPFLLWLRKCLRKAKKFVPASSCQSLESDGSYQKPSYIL

IC50 | SMILES
500 µM | CC(=O)N[C@H]1[C@H]([C@H](O)[C@H](O)CO)O[C@@](O[C@H]2[C@@H](O)[C@@H](CO)O[C@@H](O[C@@H]([C@H](O[C@@H]3O[C@@H](C)[C@@H](O)[C@@H](O)[C@@H]3O)[C@H](C=O)NC(C)=O)[C@H](O)CO)[C@@H]2O)(C(=O)O)C[C@@H]1O [SIALYL LEWIS X]

target: T1, E-selectin; assay: Inhibitory activity against Selectin E

SMILES | IC50
CCCCCCCCCCCCCCCCOC(=O)CC[C@H](NCCOCCOCCNC(=O)[C@@H](NC(=O)[C@H]1C[C@H](O)CN1C(=O)CCCC(=O)O)[C@@H](C)O[C@@H]1O[C@@H](C)[C@@H](O)C(O)C1O)C(=O)OCCCCCCCCCCCCCCCC (some centres not stated) | 500 µM
CCOC(=O)[C@@H](NC(=O)[C@H](NC(=O)CCCC(=O)O)[C@@H](O)CO)[C@@H](C)O[C@@H]1O[C@@H](C)[C@@H](O)C(O)C1O (some centres not stated) | 500 µM
CCOC(=O)[C@@H](NC(=O)[C@H]1C[C@@H](O)CN1C(=O)CCCC(=O)O)[C@@H](C)O[C@@H]1O[C@@H](C)[C@@H](O)C(O)C1O (some centres not stated) | 3000 µM
C[C@@H]1O[C@@H](O[C@@H]2CCCC[C@H]2NC(=O)[C@@H]2[C@@H](O)[C@@H](O)CN2C(=O)CCCC(=O)O)C(O)C(O)[C@@H]1O (some centres not stated) | 5000 µM
CCOC(=O)[C@@H](NC(=O)[C@@H]1C[C@H](O)CN1C(=O)CCCC(=O)O)[C@@H](C)O[C@@H]1O[C@@H](C)[C@@H](O)C(O)C1O (some centres not stated) | 1000 µM
CCCCCCCCCCCCCCCCOC(=O)CC[C@H](NC(=O)CNC(=O)[C@@H](NC(=O)[C@H]1C[C@H](O)CN1C(=O)CCCC(=O)O)[C@@H](C)O[C@@H]1O[C@@H](C)[C@@H](O)C(O)C1O)C(=O)OCCCCCCCCCCCCCCCC (some centres not stated) | 500 µM
CCOC(=O)[C@@H](NC(=O)C(CO)(CO)NC(=O)CCCC(=O)O)[C@@H](C)O[C@@H]1O[C@@H](C)[C@@H](O)C(O)C1O (some centres not stated) | 900 µM

Next, values leading:

IC50 | SMILES
300 µM | CCOC(=O)[C@@H](NC(=O)[C@@H]1C[C@@H](O)CN1C(=O)CCCC(=O)O)[C@@H](C)O[C@@H]1O[C@@H](C)[C@@H](O)C(O)C1O (some centres not stated)
100 µM | CCOC(=O)[C@@H](NC(=O)[C@H]1C[C@H](O)CN1C(=O)CCCC(=O)O)[C@@H](C)O[C@@H]1O[C@@H](C)[C@@H](O)C(O)C1O (some centres not stated)
100 µM | CCOC(=O)[C@@H](NC(=O)C1C[C@@H](O)CN1C(=O)CCCC(=O)O)[C@@H](C)O[C@H]1O[C@@H](C)[C@@H](O)C(O)C1O (single isomer, unassigned)
50 µM | CCOC(=O)[C@@H](NC(=O)[C@@H]1[C@@H](O)[C@@H](O)CN1C(=O)CCCC(=O)O)[C@@H](C)O[C@@H]1O[C@@H](C)[C@@H](O)C(O)C1O (some centres not stated)
